Organism: Rattus norvegicus
Assay: DrugMatrix - Regimen: Daily Repeat
Assay type: toxicity, organism-based, Sprague-Dawley
Set-up: regimen Daily Repeat, gender Male, age 6-8 weeks
Settings: in vivo, iv, vehicle 100 % SALINE; for ABSOLUTE BASOPHIL / ABSOLUTE EOSINOPHIL / ABSOLUTE LYMPHOCYTE / ABSOLUTE MONOCYTE / ABSOLUTE SEGMENTED NEUTROPHIL / BASOPHIL / EOSINOPHIL / ERYTHROCYTE COUNT / HEMATOCRIT / HEMOGLOBIN / LEUKOCYTE COUNT / LYMPHOCYTE / MEAN CORPUSCULAR HEMOGLOBIN / MEAN CORPUSCULAR HEMOGLOBIN CONCENTRATION / MEAN CORPUSCULAR VOLUME / MONOCYTE / NEUTROPHIL / NUCLEATED RED BLOOD CELLS / PLATELET COUNT: tissue Blood; for ALANINE AMINOTRANSFERASE / ALBUMIN / ALKALINE PHOSPHATASE / ASPARTATE AMINOTRANSFERASE / BLOOD UREA NITROGEN / CARBON DIOXIDE / CHLORIDE / CHOLESTEROL / CREATINE PHOSPHOKINASE / CREATININE / GLUCOSE / LACTATE DEHYDROGENASE / LIPASE / PHOSPHORUS / POTASSIUM / SODIUM / TOTAL BILIRUBIN / TOTAL PROTEIN / URIC ACID: tissue Plasma
[1] = 0 mg/kg, 72 h, dose level Control, time 3 day
[2] = 0 mg/kg, 120 h, dose level Control, time 5 day
[3] = 20 mg/kg, 72 h, dose level Low, time 3 day
[4] = 20 mg/kg, 120 h, dose level Low, time 5 day

With `CN(N=O)C(=O)N[C@@H](C=O)[C@@H](O)[C@H](O)[C@H](O)CO` [STREPTOZOCIN] the “ABSOLUTE BASOPHIL” value [1] was 0 CELLS/uL, the “ABSOLUTE EOSINOPHIL” value [1] was 247.67 CELLS/uL and the “ABSOLUTE LYMPHOCYTE” value [1] was 13190.83 CELLS/uL. The “ABSOLUTE MONOCYTE” value [1] was 307.67 CELLS/uL, the “ABSOLUTE SEGMENTED NEUTROPHIL” value [1] was 1220.5 CELLS/uL and the BASOPHIL [1] was 0%. For the same compound, the EOSINOPHIL [1] was 1.67%, the “ERYTHROCYTE COUNT” value [1] was 5.47 x10E6/uL and the HEMATOCRIT [1] was 33.98%. The HEMOGLOBIN [1] was 12.65 G/DL, the “LEUKOCYTE COUNT” value [1] was 14.97 x10E3/uL and the LYMPHOCYTE [1] was 88.17%. The “MEAN CORPUSCULAR HEMOGLOBIN” value [1] was 23.17 pg, the “MEAN CORPUSCULAR HEMOGLOBIN CONCENTRATION” value [1] was 37.23 G/DL and the “MEAN CORPUSCULAR VOLUME” value [1] was 62.25 fL. The MONOCYTE [1] was 2%, the NEUTROPHIL [1] was 8.17% and the “NUCLEATED RED BLOOD CELLS” value [1] was 0 /100WBC. The “PLATELET COUNT” value [1] was 1307.17 x10E3/uL, the “ALANINE AMINOTRANSFERASE” value [1] was 39.67 u/L and the ALBUMIN [1] was 4.08 G/DL. The “ALKALINE PHOSPHATASE” value [1] was 383.17 u/L, the “ASPARTATE AMINOTRANSFERASE” value [1] was 88.83 u/L and the “BLOOD UREA NITROGEN” value [1] was 18.5 mg/dL. For the same compound, the “CARBON DIOXIDE” value [1] was 27.5 mmol/L, the CHLORIDE [1] was 103 MEQ/L and the CHOLESTEROL [1] was 67.33 mg/dL. For the same compound, the “CREATINE PHOSPHOKINASE” value [1] was 414.67 u/L, the CREATININE [1] was 0.19 mg/dL and the GLUCOSE [1] was 149.33 mg/dL. The “LACTATE DEHYDROGENASE” value [1] was 536.83 u/L, the LIPASE [1] was 8.83 u/L and the PHOSPHORUS [1] was 11.13 mg/dL. The POTASSIUM [1] was 6.23 MEQ/L, the SODIUM [1] was 144.42 MEQ/L and the “TOTAL BILIRUBIN” value [1] was 0.18 mg/dL. For the same compound, the “TOTAL PROTEIN” value [1] was 5.57 G/DL, the “URIC ACID” value [1] was 1.23 mg/dL and the “ABSOLUTE BASOPHIL” value [2] was 0 CELLS/uL. The “ABSOLUTE EOSINOPHIL” value [2] was 158.83 CELLS/uL, the “ABSOLUTE LYMPHOCYTE” value [2] was 13517.17 CELLS/uL and the “ABSOLUTE MONOCYTE” value [2] was 352.67 CELLS/uL. The “ABSOLUTE SEGMENTED NEUTROPHIL” value [2] was 1104.67 CELLS/uL, the BASOPHIL [2] was 0% and the EOSINOPHIL [2] was 1%. The “ERYTHROCYTE COUNT” value [2] was 5.73 x10E6/uL, the HEMATOCRIT [2] was 36.85% and the HEMOGLOBIN [2] was 13.67 G/DL. For the same compound, the “LEUKOCYTE COUNT” value [2] was 15.13 x10E3/uL, the LYMPHOCYTE [2] was 89.5% and the “MEAN CORPUSCULAR HEMOGLOBIN” value [2] was 23.87 pg. The “MEAN CORPUSCULAR HEMOGLOBIN CONCENTRATION” value [2] was 37.1 G/DL, the “MEAN CORPUSCULAR VOLUME” value [2] was 64.33 fL and the MONOCYTE [2] was 2.33%. For the same compound, the NEUTROPHIL [2] was 7.17%, the “NUCLEATED RED BLOOD CELLS” value [2] was 0.17 /100WBC and the “PLATELET COUNT” value [2] was 1266 x10E3/uL. For the same compound, the “ALANINE AMINOTRANSFERASE” value [2] was 49.17 u/L, the ALBUMIN [2] was 4.22 G/DL and the “ALKALINE PHOSPHATASE” value [2] was 352.67 u/L. The “ASPARTATE AMINOTRANSFERASE” value [2] was 95.17 u/L, the “BLOOD UREA NITROGEN” value [2] was 18.83 mg/dL and the “CARBON DIOXIDE” value [2] was 25.67 mmol/L. The CHLORIDE [2] was 102.67 MEQ/L, the CHOLESTEROL [2] was 66.83 mg/dL and the “CREATINE PHOSPHOKINASE” value [2] was 550.33 u/L. The CREATININE [2] was 0.23 mg/dL, the GLUCOSE [2] was 186.17 mg/dL and the “LACTATE DEHYDROGENASE” value [2] was 471.33 u/L. The LIPASE [2] was 8.67 u/L, the PHOSPHORUS [2] was 12.3 mg/dL and the POTASSIUM [2] was 6.35 MEQ/L. For the same compound, the SODIUM [2] was 143.57 MEQ/L, the “TOTAL BILIRUBIN” value [2] was 0.18 mg/dL and the “TOTAL PROTEIN” value [2] was 6.05 G/DL. The “URIC ACID” value [2] was 2 mg/dL, the “ABSOLUTE BASOPHIL” value [3] was 0 CELLS/uL and the “ABSOLUTE EOSINOPHIL” value [3] was 193 CELLS/uL. The “ABSOLUTE LYMPHOCYTE” value [3] was 10866.33 CELLS/uL, the “ABSOLUTE MONOCYTE” value [3] was 207.67 CELLS/uL and the “ABSOLUTE SEGMENTED NEUTROPHIL” value [3] was 899.67 CELLS/uL. For the same compound, the BASOPHIL [3] was 0%, the EOSINOPHIL [3] was 1.67% and the “ERYTHROCYTE COUNT” value [3] was 5.49 x10E6/uL. The HEMATOCRIT [3] was 33.93%, the HEMOGLOBIN [3] was 12.73 G/DL and the “LEUKOCYTE COUNT” value [3] was 12.17 x10E3/uL. The LYMPHOCYTE [3] was 89.33%, the “MEAN CORPUSCULAR HEMOGLOBIN” value [3] was 23.23 pg and the “MEAN CORPUSCULAR HEMOGLOBIN CONCENTRATION” value [3] was 37.5 G/DL. For the same compound, the “MEAN CORPUSCULAR VOLUME” value [3] was 61.77 fL, the MONOCYTE [3] was 1.67% and the NEUTROPHIL [3] was 7.33%. The “NUCLEATED RED BLOOD CELLS” value [3] was 0.33 /100WBC, the “PLATELET COUNT” value [3] was 1240.67 x10E3/uL and the “ALANINE AMINOTRANSFERASE” value [3] was 42 u/L. For the same compound, the ALBUMIN [3] was 4.1 G/DL, the “ALKALINE PHOSPHATASE” value [3] was 304.33 u/L and the “ASPARTATE AMINOTRANSFERASE” value [3] was 96.33 u/L. The “BLOOD UREA NITROGEN” value [3] was 16 mg/dL, the “CARBON DIOXIDE” value [3] was 25.33 mmol/L and the CHLORIDE [3] was 104 MEQ/L. For the same compound, the CHOLESTEROL [3] was 67 mg/dL, the “CREATINE PHOSPHOKINASE” value [3] was 595 u/L and the CREATININE [3] was 0.25 mg/dL. The GLUCOSE [3] was 148.67 mg/dL, the “LACTATE DEHYDROGENASE” value [3] was 798.67 u/L and the LIPASE [3] was 9.33 u/L. It also gave a PHOSPHORUS [3] of 11.97 mg/dL, a POTASSIUM [3] of 6.35 MEQ/L and an SODIUM [3] of 143.3 MEQ/L. For the same compound, the “TOTAL BILIRUBIN” value [3] was 0.17 mg/dL, the “TOTAL PROTEIN” value [3] was 5.4 G/DL and the “URIC ACID” value [3] was 1.33 mg/dL. For the same compound, the “ABSOLUTE BASOPHIL” value [4] was 0 CELLS/uL, the “ABSOLUTE EOSINOPHIL” value [4] was 64 CELLS/uL and the “ABSOLUTE LYMPHOCYTE” value [4] was 13587.67 CELLS/uL. For the same compound, the “ABSOLUTE MONOCYTE” value [4] was 429.67 CELLS/uL, the “ABSOLUTE SEGMENTED NEUTROPHIL” value [4] was 1452 CELLS/uL and the BASOPHIL [4] was 0%. The EOSINOPHIL [4] was 0.33%, the “ERYTHROCYTE COUNT” value [4] was 5.57 x10E6/uL and the HEMATOCRIT [4] was 35.7%. The HEMOGLOBIN [4] was 13.4 G/DL, the “LEUKOCYTE COUNT” value [4] was 15.53 x10E3/uL and the LYMPHOCYTE [4] was 87.33%. For the same compound, the “MEAN CORPUSCULAR HEMOGLOBIN” value [4] was 24.07 pg, the “MEAN CORPUSCULAR HEMOGLOBIN CONCENTRATION” value [4] was 37.53 G/DL and the “MEAN CORPUSCULAR VOLUME” value [4] was 64.17 fL. For the same compound, the MONOCYTE [4] was 2.67%, the NEUTROPHIL [4] was 9.67% and the “NUCLEATED RED BLOOD CELLS” value [4] was 0 /100WBC. For the same compound, the “PLATELET COUNT” value [4] was 1260.33 x10E3/uL, the “ALANINE AMINOTRANSFERASE” value [4] was 54.33 u/L and the ALBUMIN [4] was 4 G/DL. The “ALKALINE PHOSPHATASE” value [4] was 308.67 u/L, the “ASPARTATE AMINOTRANSFERASE” value [4] was 82.33 u/L and the “BLOOD UREA NITROGEN” value [4] was 21 mg/dL. For the same compound, the “CARBON DIOXIDE” value [4] was 26.33 mmol/L, the CHLORIDE [4] was 103.67 MEQ/L and the CHOLESTEROL [4] was 70.33 mg/dL. The “CREATINE PHOSPHOKINASE” value [4] was 420.67 u/L, the CREATININE [4] was 0.21 mg/dL and the GLUCOSE [4] was 181.67 mg/dL. The “LACTATE DEHYDROGENASE” value [4] was 60.33 u/L, the LIPASE [4] was 7.67 u/L and the PHOSPHORUS [4] was 12.23 mg/dL. The POTASSIUM [4] was 6.34 MEQ/L, the SODIUM [4] was 146.17 MEQ/L and the “TOTAL BILIRUBIN” value [4] was 0.17 mg/dL. The “TOTAL PROTEIN” value [4] was 6.03 G/DL and the “URIC ACID” value [4] was 1.87 mg/dL.
